Entries after “also recorded” stand apart in the source; their conditions may differ.
Tests used:
Type in all cases: cell-based, human
SK-MEL-2 cells = test: CCK-8 proliferation assay, SK-MEL-2; details: for antiproliferation in wild-type BRAF cells: 48 hours
Description: […] Cells were treated with 20 μM 1-benzyl I3C every 24 hours for 72 hours and harvested at 24, 48 and 72 hours for western blot and flow cytometric analysis. Cells were treated with 20 μM LiCl or 10 μM BIO for 48 hours before harvesting them for western blots.
(§1) Subsequently inhibition of proliferation was assessed using Cell counting Kit-8 (Dojindo) as per the protocol in the user's manual. Briefly, 50 μl of the CCK-8 solution was added to each well along with 450 μl media and incubated for 2-3 hours. The absorbance was read at 450 nm and % inhibition was calculated for each condition standardizing DMSO to zero using the formula: [(100−Value of treatment/Value of DMSO treated control)×100]

G-361 melanoma cells = test: CCK-8 proliferation assay, G-361
Description: (§2) The same treatment regime was repeated on multiple melanoma cell lines with 20 μM 1-benzyl I3C and 200 μM I3C for 48 hours to compare the relative sensitivities of the different cell lines with distinct mutation profiles to 1-benzyl I3C and I3C. Cells were treated with 20 μM 1-benzyl I3C every 24 hours for 72 hours and harvested at 24, 48 and 72 hours for western blot and flow cytometric analysis. Cells were treated with 20 μM LiCl or 10 μM BIO for 48 hours before harvesting them for western blots.
(§3) To study the effect of I3C, cells were treated with or without 200 μM I3C every 24 hours for 72 hours and harvested at 24, 48 and 72 hours for western blot and flow cytometric analysis.
as §1

DM738 melanoma cells = test: CCK-8 proliferation assay, DM738
Description: as §2, §3, §1

MITF-M transcript = test: RT-PCR analysis of MITF-M transcripts; details: for MITF-M transcript levels: 200 μM I3C, 72 hour time course
Description: Total RNA was extracted from harvested cells using the RNeasy extraction kit for mammalian cells (obtained from Qiagen, Hercules, Calif.) and spectrophotometrically quantified by absorbance at 260 nm. Reverse transcription (RT) reactions were carried out using RT-MMLV reverse transcriptase (Invitrogen, Eugene, Oreg.) and the cDNA was used for polymerase chain reaction (PCR) reactions using 10 pM of the following primers: MITF-M forward 5′ CCGTCTCTCACTGGATTGGT 3′ (SEQ ID NO:1), MITF-M Reverse 5′ TACTTGGTGGGGTTTTCGAG 3′ (SEQ ID NO:2) GAPDH forward, […] (SEQ ID NO:3) and reverse, […] (SEQ ID NO:4). PCR conditions were as follows: 30 s at 94° C., 30 s at 55° C. and 30 s at 72° C. for 28 cycles. PCR products were electrophoretically fractionated in 1.5% agarose gels containing 0.01% Gel Red (Biotium) for DNA staining along with 1 kb plus DNA ladder (Thermo Scientific) and further visualized by a UV transilluminator.

MITF-M = MITF-M protein levels in cultured melanoma cells (western blot, immunofluorescence)
Description: Western Blot analyses of samples electrophoretically fractionated on 12% acrylamide gels were carried out as previously described (Wagle et al., J. Clin. Oncol. 2011. 29(22):3085-3096; Nguyen et al., Chem. Biol. Interact. 2010. 186(3):255-266). Enhanced chemiluminescence (ECL) Lightening reagents were used to visualize the primary antibody bound protein bands in nitrocellulose membranes and the results captured on ECL Autoradiography Film (GE Healthcare, Piscataway, N.J.). The western blots employed the following primary antibodies: mouse anti-MITF-M (Thermo-scientific), mouse anti-HSP 90 (BD Biosciences), mouse anti-CDK2, rabbit anti-CDK4, rabbit anti-CDK-6, mouse anti-rabbit BRAF, goat anti-LEF-1, rabbit anti-AXIN, mouse anti-BCL2, (Santa Cruz), rabbit anti-P21, mouse anti-Cyclin D1, rabbit anti-MEK-p, rabbit anti-MEK1/2, rabbit anti-GSK3β rabbit anti-LRP6, rabbit anti-LRP6-phospho (Cell signaling), mouse anti-β-catenin (Invitrogen).

MITF-M promoter = MITF-M promoter luciferase reporter assay; details: G361 cells, 24 hours
Description: G361 Melanoma cells were cultured to approximately 80% confluency in 6 well adherent culture plates in triplicates for each experimental condition for 24 hours. The cells were then transiently transfected with either a wild-type pGL2-pMITF-333/+120-luciferase reporter plasmid or a similar plasmid with the LEF-1/TCF binding site mutated at −199. pGL2-pMITF-333/+120-ΔLEF-1-luciferase, (ALEF-1) was generated using the following primers: LEF-1 forward, 5′-[…]-3′ (SEQ ID NO:5) and LEF-1 reverse, 5′-[…]-3′ (SEQ ID NO:6).
PCR conditions used were as follows: 30 s hotstart at 95° C., 30 s at 95° C., 1 min at 55° C., 8 min at 68° C. for 16 cycles. Mutagenesis was performed using QuickChange II kit (Aligent) per the manufacturer's instructions. PCR products were extracted and purified using QIAquick Gel Extraction Kit (Qiagen). Sequence was confirmed by automated DNA sequencing (University of California Berkeley Sequencing Facility). […] 20 μl of supernatant from each sample was combined with 100 μl luciferase substrate (Promega) and emitted fluorescence was measured using luminometer, Lumat LB 9507 (EG&G Berthold) and the relative light units (RLU) were recorded. The RLU/μg for each sample was calculated by dividing the data obtained with their specific protein concentration determined by a Bradford assay using 1× BioRad Protein Assay reagent and measuring O.D at 595 nm.

[1] = 200 μM I3C, 72 hours, BRAF-V600E

**Q.** How did the “antiproliferation in wild-type BRAF cells” value (SK-MEL-2 cells) turn out when `OCc1cn(Cc2ccccc2)c2ccccc12` [1-benzyl I3C, 1-benzyl indole-3-carbinol] was run?
**A.** showed antiproliferation

**Q.** And the “fold lower concentration than I3C” value (G-361 melanoma cells; 48 hours)?
**A.** 10-20 fold

**Q.** What about the “optimum concentration for antiproliferation” value (from here on “optimum concentration”) (G-361 melanoma cells; 48 hours) of the same compound?
**A.** 10 to 20 µM

**Q.** And the “fold lower concentration than I3C” value (G-361 melanoma cells; 48 hours, listed as 1-Benzyl I3C)?
**A.** > 10 fold

**Q.** And the “antiproliferation compared with I3C” value (G-361 melanoma cells; varying doses, 48 hours)?
**A.** significantly greater antiproliferation than I3C

**Q.** And the “fold lower concentration than I3C” value (DM738 melanoma cells; 48 hours)?
**A.** 10-20 fold

**Q.** And the “optimum concentration” value (DM738 melanoma cells; 48 hours)?
**A.** 10 to 20 µM

**Q.** What about the “antiproliferation compared with I3C” value (DM738 melanoma cells; varying doses, 48 hours) of the same compound?
**A.** significantly greater antiproliferation than I3C

**Q.** What about the MITF-M transcript level (MITF-M transcript; G-361, DM738, SK-MEL-2 cells, 1-benzyl I3C) of the same compound?
**A.** concomitant inhibition of MITF-M transcript level

**Q.** And the “MITF-M protein levels (western blot)” value (MITF-M; G361 and DM738 cells, 1-benzyl I3C, 24, 48, 72 hours)?
**A.** significant downregulation of MITF-M

**Q.** And the “MITF-M protein levels (western blot)” value (MITF-M; SK-MEL-2 cells (WT BRAF), 1-benzyl I3C, 24, 48, 72 hours)?
**A.** significant inhibitory effect on MITF-M protein levels

**Q.** What about the “MITF-M promoter activity (luciferase reporter, WT)” value (MITF-M promoter; 20 μM 1-benzyl I3C) of the same compound?
**A.** Luciferase activity was significantly abrogated

**Q.** `OCc1c[nH]c2ccccc12` [I3C, indole-3-carbinol] was tested. Which “sensitivity to anti-proliferative effects” value (shortened to “sensitivity”) (SK-MEL-2 cells; 200 μM I3C, 72 hours, wild type BRAF) did it give?
**A.** significantly less sensitive

**Q.** And the “antiproliferation in wild-type BRAF cells” value (SK-MEL-2 cells)?
**A.** ineffective

**Q.** What about the “sensitivity” value (G-361 melanoma cells; [1]) of the same compound?
**A.** Most sensitive

**Q.** What about the proliferative arrest (G-361 melanoma cells; 200 μM I3C, submaximal 24 hours, empty vector transfected or untransfected cells) of the same compound?
**A.** 60%

**Q.** And the “optimum concentration” value (G-361 melanoma cells; 48 hours)?
**A.** 200 to 300 µM

**Q.** And the “sensitivity” value (DM738 melanoma cells; [1])?
**A.** Most sensitive

**Q.** And the “optimum concentration” value (DM738 melanoma cells; 48 hours)?
**A.** 200 to 300 µM

**Q.** What about the MITF-M transcript levels (MITF-M transcript; G-361 and DM738 cells) of the same compound?
**A.** strongly down regulated MITF-M transcript levels

**Q.** And the MITF-M transcript levels (MITF-M transcript; SK-MEL-2 cells)?
**A.** modest increase in MITF-M transcript levels

**Q.** What about the “MITF-M protein levels (western blot)” value (MITF-M; G-361 and DM738 cells, varying concentrations of I3C, 48 hours) of the same compound?
**A.** strongly down-regulated MITF-M levels

**Q.** And the “MITF-M protein levels (western blot)” value (MITF-M; G-361 cells, 48 hours, 200 μM I3C, 10 μM Vemurafenib or 10 μM U0126)?
**A.** down regulated

**Q.** And the “MITF-M protein levels (western blot)” value (MITF-M; SK-MEL-2 cells (wild type BRAF), I3C)?
**A.** expressed high levels of MITF-M protein at all concentrations of I3C; also recorded: no downregulation of MITF-M levels

**Q.** What about the “MITF-M promoter activity (−333/+120 luciferase reporter, WT)” value (MITF-M promoter; 200 μM I3C) of the same compound?
**A.** strongly down regulated MITF-M promoter activity
